Counter-ions that a name gives are not always drawn.
Key:
Assay type in all cases: in vivo
C57Bl/6 mice [1] = test: Analgesic threshold testing (von Frey test and hot plate test) during UV/mock regimen; conditions: 10 mg/kg ip 15 min prior to testing; chronically UV-irradiated mice
Source text: Mice underwent mechanical and thermal analgesic testing during UV/mock treatment regimens using the von Frey test (Kwan et al., 2006) and the hot plate test respectively (Mogil et al., 1999). In the von Frey test, mice were placed in individual enclosures on an elevated wire mesh rack and the plantar surface of the left hind paw was serially poked with fibers of increasing tensile strength (10 times per fiber at a rate of 1/second) until a paw withdrawal response was elicited on 2/10 pokes. In the hot plate test, mice were placed on a 52° C. hot plate and time to response (paw flutter, paw licking, jumping) was measured. […]
We developed a UV-exposure mouse model in which dorsally-shaved mice received a dose of 50 mJ/cm^2 of UVB, 5 days per week for 6 weeks, an empirically-derived sub-erythemic dose which is approximately equal to 20-30 minutes of ambient midday sun exposure in Florida during the summer for a fair-skinned person of average tanning ability (Fitzpatrick skin phototypes 2-3) (D'Orazio et al., 2006; Technology-Planning-and-Management-Corporation, 2000; US-EPA, 1994). […] We quantified mechanical and thermal nociceptive thresholds over six weeks of daily UV exposure. Mechanical nociception was measured by the von Frey test (Kwan et al., 2006), which exposes fibers of increasing tensile strength to the plantar paw surface to elicit a paw withdrawal response. […]

C57Bl/6 mice [2] = test: Straub Tail measurement; conditions: 10 mg/kg ip, scored 15 minutes after injection; day 23 of the UV exposure regimen
Protocol: Straub Tail measurement was performed as described (Bilbey et al., 1960). Scoring was on a scale of 0-2 according to the angle of elevation of the tail from the horizontal plane (0=tail relaxed and no elevation; 1=tail is rigid and elevated 1-10° from horizontal; 1.5=11-45° elevation and rigidity at the base of the tail; 2=46-90° elevation and rigidity at the base of the tail). At each time point, each mouse was scored every 10 seconds for 1 minute and the final score was the average of these six values. Mice undergoing the six-week UV exposure regimen or mock treatment were scored prior to the start of the regimen, once per week during the regimen, and once per week for 2 weeks following cessation of UV/mock treatment. On day 23 of the regimen, after weekly Straub Tail scoring, mice were injected (intraperitoneal (ip)) with either 10 mg/kg naloxone hydrochloride (Sigma, St. Louis, Mo.) or saline. Mice underwent Straub Tail scoring again 15 minutes following injection.
Exogenous opioids produce a dose-dependent, μ-opioid receptor-mediated contraction of the sacrococcygeus dorsalis muscle at the tail base in rodents, resulting in rigidity and elevation of the tail, a phenomenon called “Straub Tail” (Bilbey et al., 1960). […]

C57Bl/6 mice [3] = test: Conditioned place aversion testing
Protocol: The apparatus used consisted of a box with black interior and dim lighting and a box with white interior and bright lighting connected by a smaller gray “neutral” box, and procedures were followed as described (Skoubis et al., 2001; Weitemier and Murphy, 2009). Mice that had undergone 6 weeks of daily UV exposure or mock exposure were tested for baseline place preferences prior to conditioning (10-minute testing time per mouse). Over the following 4 days, conditioning took place in which mice were either conditioned with naloxone (10 mg/kg ip injection) or saline (ip injection) in the black box, and all animals were conditioned with saline (ip injection) in the white box. Conditioning time in each box was 30 minutes following injection. For each animal there were four hours between conditioning in one box and conditioning in the other box. On the day following the final day of conditioning, place preferences were again tested (post-conditioning, 10-minute testing time per mouse).
Because the magnitude of the measured withdrawal symptoms, while significant, was smaller than that commonly observed with exogenously administered opioids (Broseta et al., 2002), we wished to determine whether these withdrawal signs would be sufficient to elicit alterations in pro-active/operant behavioral choices. We utilized a conditioned place aversion assay (Skoubis et al., 2001; Weitemier and Murphy, 2009) to test whether a specific environment, paired with naloxone administration during conditioning, would be avoided in favor of a different environment paired with a neutral stimulus (saline) during conditioning in chronically UV-irradiated animals. Due to the kinetics of the UV response we chose to use naloxone as it allowed an acute effect of limited duration. Naloxone induces conditioned place aversion in exogenous opioid-dependent mice (Glass et al., 2008; Kenny et al., 2006). Following conditioning, mice were permitted to move freely between the two environments and changes in place preference were measured, in the absence of additional naloxone or saline administration. […]

C57Bl/6 mice [4] = test: Somatic symptoms of opiate withdrawal after chronic UV exposure; conditions: 2 mg/kg ip after 6 weeks of daily UV exposure; observed 25 minutes
Protocol: Mice that had undergone 6 weeks of daily UV exposure or mock exposure were injected (ip) with either 2 mg/kg naloxone or saline, and signs of opioid withdrawal were tabulated as described (Olson et al., 2006). […] Wet dog shake, teeth chatter, and bouts of grooming were measured as occurrence in each 15-second interval. Individual rearing events were counted. Number of fecal pellets at the end of the 25-minute interval was used to quantify diarrhea.

C=CCN1CC[C@]23c4c5ccc(O)c4O[C@H]2C(=O)CC[C@@]3(O)[C@H]1C5 [naloxone, naloxone hydrochloride]
mechanical nociceptive threshold (von Frey) (C57Bl/6 mice [1]): suppressed the UV-induced increases in mechanical and thermal nociceptive thresholds | thermal nociceptive threshold (hot plate 52° C.) (C57Bl/6 mice [1]): suppressed the UV-induced increases in mechanical and thermal nociceptive thresholds | Straub Tail score (C57Bl/6 mice [2]): reversed the Straub Tail phenotype | conditioned place aversion (C57Bl/6 mice [3]; 10 mg/kg ip conditioning in the black box, chronically UV-irradiated mice): sufficient to induce conditioned place aversion | conditioned place aversion (C57Bl/6 mice [3]; 10 mg/kg ip conditioning in the black box, mock-treated (non-UV irradiated) control mice): had no effect on mock-treated (non-UV irradiated) control mice | conditioned place aversion (C57Bl/6 mice [3]; K14cre control mice vs p53fl/fl K14cre mice after 3 weeks of daily UV exposure): significant naloxone conditioned place aversion | signs of opioid withdrawal (C57Bl/6 mice [4]): elicited many of the classic murine signs of opioid withdrawal

— US20190083455A1, “METHODS AND COMPOSITIONS FOR THE MODULATION OF BETA-ENDORPHIN LEVELS” (The General Hospital Corporation, priority 2014, published 2019)
